Reference: PubChem BioAssay (NCI)
Several values for one entry are separate records, joined by “and”; a condition that tells them apart may be missing. Equal values may be shown once.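 Values below derive from 48-hour exposures of cells grown in 96-well plates, with endpoints linearly interpolated between the two concentrations bracketing the appropriate inhibition level. GI50 marks 50% less growth. TGI: total growth inhibition.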

Tests used:
Test in all cases: NCI tumour cell line growth inhibition, 48 h
NCI/ADR-RES ovarian = tested on: NCI/ADR-RES ovarian
MDA-MB-231 breast = tested on: MDA-MB-231 breast
UO-31 renal = tested on: UO-31 renal
DMS 114 small cell lung = tested on: DMS 114 small cell lung
SW-620 colon = tested on: SW-620 colon
HOP-18 NSCLC = tested on: HOP-18 NSCLC
HOP-92 NSCLC = tested on: HOP-92 NSCLC
DLD-1 colon = tested on: DLD-1 colon
MOLT-4 leukemia = tested on: MOLT-4 leukemia
HT29 colon = tested on: HT29 colon
P388 leukemia = tested on: P388 leukemia
HCT-116 colon = tested on: HCT-116 colon
XF 498 CNS = tested on: XF 498 CNS
NCI-H460 lung = tested on: NCI-H460 lung
A498 renal = tested on: A498 renal
LXFL 529 NSCLC = tested on: LXFL 529 NSCLC
P388/ADR leukemia = tested on: P388/ADR leukemia
SNB-78 CNS = tested on: SNB-78 CNS
DMS 273 small cell lung = tested on: DMS 273 small cell lung
MDA-N = tested on: MDA-N
SN12K1 renal = tested on: SN12K1 renal
COLO 205 colon = tested on: COLO 205 colon
T-47D breast = tested on: T-47D breast
CAKI-1 renal = tested on: CAKI-1 renal
SK-MEL-28 melanoma = tested on: SK-MEL-28 melanoma
OVCAR-4 ovarian = tested on: OVCAR-4 ovarian
MALME-3M melanoma = tested on: MALME-3M melanoma
U251 CNS = tested on: U251 CNS
NCI-H23 lung = tested on: NCI-H23 lung
M19-MEL melanoma = tested on: M19-MEL melanoma
SF-295 CNS = tested on: SF-295 CNS
ACHN renal = tested on: ACHN renal
SF-268 CNS = tested on: SF-268 CNS
HOP-62 NSCLC = tested on: HOP-62 NSCLC
SNB-19 CNS = tested on: SNB-19 CNS
KM20L2 colon = tested on: KM20L2 colon
MDA-MB-435 = tested on: MDA-MB-435
SR leukemia = tested on: SR leukemia
UACC-62 melanoma = tested on: UACC-62 melanoma
RXF 393 renal = tested on: RXF 393 renal
NCI-H522 lung = tested on: NCI-H522 lung

CC[C@]1(O)C[C@H]2CN(CCc3c([nH]c4ccccc34)[C@@](C(=O)OC)(c3cc4c(cc3OC)N(C=O)[C@H]3[C@@](O)(C(=O)OC)[C@H](OC(C)=O)[C@]5(CC)C=CCN6CC[C@]43[C@@H]65)C2)C1
GI50 (NCI/ADR-RES ovarian): 1.18 µM and 0.536 µM and 1.95 µM | TGI (NCI/ADR-RES ovarian): 4.87 µM and 12.5 µM and 8.04 µM | GI50 (MDA-MB-231 breast): 0.00138 µM | GI50 (UO-31 renal): 0.476 µM | TGI (DMS 114 small cell lung): 0.56 µM | TGI (SW-620 colon): 141 µM and 18 µM | TGI (HOP-18 NSCLC): 87.3 µM | TGI (HOP-92 NSCLC): 1.19 µM and 3.07 µM and 6.57 µM | TGI (DLD-1 colon): 144 µM | TGI (MOLT-4 leukemia): 7.59 µM and 48 µM and 23.3 µM | TGI (HT29 colon): 27.2 µM | TGI (P388 leukemia): 7.83 µM | GI50 (HCT-116 colon): 0.0011 µM | TGI (XF 498 CNS): 2.5 µM | GI50 (NCI-H460 lung): < 0.001 µM | TGI (NCI-H460 lung): 0.775 µM and 2.35 µM | GI50 (A498 renal): 0.00192 µM | TGI (LXFL 529 NSCLC): 7.81 µM | TGI (P388/ADR leukemia): 35.5 µM | TGI (SNB-78 CNS): 109 µM | TGI (DMS 273 small cell lung): 3.13 µM | GI50 (MDA-N): < 0.001 µM | TGI (SN12K1 renal): 0.134 µM | GI50 (COLO 205 colon): 0.00159 µM | TGI (COLO 205 colon): 0.0463 µM and 0.22 µM | GI50 (T-47D breast): 112 µM | TGI (T-47D breast): 399 µM and 171 µM | GI50 (CAKI-1 renal): 1.95 µM | TGI (CAKI-1 renal): 9.22 µM and 10.8 µM and 77.2 µM | GI50 (SK-MEL-28 melanoma): 0.00464 µM | TGI (SK-MEL-28 melanoma): 113 µM | TGI (OVCAR-4 ovarian): 132 µM and 135 µM | TGI (MALME-3M melanoma): 6.23 µM and 32 µM and 58.1 µM | TGI (U251 CNS): 1.66 µM and 2.53 µM and 16.6 µM | GI50 (NCI-H23 lung): < 0.001 µM | TGI (M19-MEL melanoma): 169 µM | TGI (SF-295 CNS): 0.141 µM and 0.536 µM | GI50 (ACHN renal): 0.00846 µM | TGI (SF-268 CNS): 8.13 µM and 31.2 µM and 79.2 µM | TGI (HOP-62 NSCLC): 56.9 µM and 142 µM | TGI (SNB-19 CNS): 43.1 µM and 17.7 µM | TGI (KM20L2 colon): 0.206 µM | GI50 (MDA-MB-435): 0.0122 µM | GI50 (SR leukemia): 0.00657 µM | TGI (UACC-62 melanoma): 38.4 µM and 75.1 µM | TGI (RXF 393 renal): 17.5 µM and 74.1 µM | GI50 (NCI-H522 lung): 0.00705 µM | TGI (NCI-H522 lung): 0.226 µM and 0.143 µM
